Reference: ChEMBL document CHEMBL1157039, “Synthesis and characterization of novel fatty acid analogs of cholesterol: in vitro antimicrobial activity” (2010)
In brackets after ≈: the same amount, converted by molar mass.

Experiments:
Pichia kudriavzevii [1] = test: Antifungal activity against Candida krusei ATCC 6528 after 48 to 72 hrs by microdilution method; assay type: functional
Pseudomonas aeruginosa [2] = test: Antibacterial activity against Pseudomonas aeruginosa ATCC 27853 after 24 hrs by disk diffusion method; assay type: functional
Streptococcus mutans [3] = test: Antibacterial activity against Streptococcus mutans UA159 MTCC 497 after 24 hrs by microdilution method; assay type: functional; details: UA159 MTCC 497, 24 h
Escherichia coli [4] = test: Antibacterial activity against Escherichia coli ATCC 25922 after 24 hrs by disk diffusion method; assay type: functional
Candida albicans [5] = test: Antifungal activity against Candida albicans ATCC 24433 after 48 to 72 hrs by microdilution method; assay type: functional
Salmonella enterica [6] = test: Antibacterial activity against recultured Salmonella Typhimurium after 24 hrs by disk diffusion method; assay type: functional, Salmonella enterica subsp. enterica serovar Typhimurium
Candida albicans [7] = test: Antifungal activity against Candida albicans ATCC 24433 after 48 to 72 hrs by disk diffusion method; assay type: functional
Streptococcus mutans [8] = test: Antibacterial activity against Streptococcus mutans UA159 MTCC 497 after 24 hrs by disk diffusion method; assay type: functional
Candida parapsilosis [9] = test: Antifungal activity against Candida parapsilosis ATCC 22019 after 48 to 72 hrs by microdilution method; assay type: functional; details: Lodderomyces parapsilosis
Staphylococcus aureus [10] = test: Antibacterial activity against Staphylococcus aureus ATCC 25923 after 24 hrs by disk diffusion method; assay type: functional
Streptococcus pyogenes [11] = test: Antibacterial activity against recultured Streptococcus pyogenes after 24 hrs by microdilution method; assay type: functional
Cryptococcus neoformans [12] = test: Antifungal activity Cryptococcus neoformans after 48 to 72 hrs by microdilution method; assay type: functional
Staphylococcus aureus [13] = test: Antibacterial activity against Staphylococcus aureus ATCC 25923 after 24 hrs by microdilution method; assay type: functional; details: ATCC 25923, 24 h
Candida parapsilosis [14] = test: Antifungal activity against Candida parapsilosis ATCC 22019 after 48 to 72 hrs by disk diffusion method; assay type: functional
Salmonella enterica [15] = test: Antibacterial activity against recultured Salmonella Typhimurium after 24 hrs by microdilution method; assay type: functional, Salmonella enterica subsp. enterica serovar Typhimurium
Escherichia coli [16] = test: Antibacterial activity against Escherichia coli ATCC 25922 after 24 hrs by microdilution method; assay type: functional; details: ATCC 25922, 24 h
Pichia kudriavzevii [17] = test: Antifungal activity against Candida krusei ATCC 6528 after 48 to 72 hrs by disk diffusion method; assay type: functional
Pseudomonas aeruginosa [18] = test: Antibacterial activity against Pseudomonas aeruginosa ATCC 27853 after 24 hrs by microdilution method; assay type: functional; details: ATCC 27853, 24 h
Cryptococcus neoformans [19] = test: Antifungal activity Cryptococcus neoformans after 48 to 72 hrs by disk diffusion method; assay type: functional
Streptococcus pyogenes [20] = test: Antibacterial activity against recultured Streptococcus pyogenes after 24 hrs by disk diffusion method; assay type: functional
Candida parapsilosis [21] = test: Antifungal activity against Candida parapsilosis ATCC 22019 at 30 ug/mL after 48 to 72 hrs by disk diffusion method; assay type: functional; details: Lodderomyces parapsilosis, read-out: DIZ
Pichia kudriavzevii [22] = test: Antifungal activity against Candida krusei ATCC 6528 at 30 ug/mL after 48 to 72 hrs by disk diffusion method; assay type: functional; details: read-out: DIZ
Cryptococcus neoformans [23] = test: Antifungal activity Cryptococcus neoformans at 30 ug/mL after 48 to 72 hrs by disk diffusion method; assay type: functional; details: read-out: DIZ
Candida albicans [24] = test: Antifungal activity against Candida albicans ATCC 24433 at 30 ug/mL after 48 to 72 hrs by disk diffusion method; assay type: functional; details: read-out: DIZ
Streptococcus mutans [25] = test: Antibacterial activity against Streptococcus mutans UA159 MTCC 497 at 30 ug/mL after 24 hrs by disk diffusion method; assay type: functional; details: UA159 MTCC 497, 24 h, read-out: DIZ
Streptococcus pyogenes [26] = test: Antibacterial activity against recultured Streptococcus pyogenes at 30 ug/mL after 24 hrs by disk diffusion method; assay type: functional; details: read-out: DIZ
Staphylococcus aureus [27] = test: Antibacterial activity against Staphylococcus aureus ATCC 25923 at 30 ug/mL after 24 hrs by disk diffusion method; assay type: functional; details: ATCC 25923, 24 h, read-out: DIZ
Pseudomonas aeruginosa [28] = test: Antibacterial activity against Pseudomonas aeruginosa ATCC 27853 at 30 ug/mL after 24 hrs by disk diffusion method; assay type: functional; details: ATCC 27853, 24 h, read-out: DIZ
Salmonella enterica [29] = test: Antibacterial activity against recultured Salmonella Typhimurium at 30 ug/mL after 24 hrs by disk diffusion method; assay type: functional, Salmonella enterica subsp. enterica serovar Typhimurium; details: read-out: DIZ
Escherichia coli [30] = test: Antibacterial activity against Escherichia coli ATCC 25922 at 30 ug/mL after 24 hrs by disk diffusion method; assay type: functional; details: ATCC 25922, 24 h, read-out: DIZ

SMILES	MIC (Pichia kudriavzevii [1]) [µg/mL]	diameter of the inhibition zone (DIZ) (Pseudomonas aeruginosa [2]) [mm]	MIC (Streptococcus mutans [3]) [µg/mL]	diameter of the inhibition zone (DIZ) (Escherichia coli [4]) [mm]	MIC (Candida albicans [5]) [µg/mL]	diameter of the inhibition zone (DIZ) (Salmonella enterica [6]) [mm]	diameter of the inhibition zone (DIZ) (Candida albicans [7]) [mm]	diameter of the inhibition zone (DIZ) (Streptococcus mutans [8]) [mm]	MIC (Candida parapsilosis [9]) [µg/mL]	diameter of the inhibition zone (DIZ) (Staphylococcus aureus [10]) [mm]	MIC (Streptococcus pyogenes [11]) [µg/mL]	MIC (Cryptococcus neoformans [12]) [µg/mL]	MIC (Staphylococcus aureus [13]) [µg/mL]	diameter of the inhibition zone (DIZ) (Candida parapsilosis [14]) [mm]	MIC (Salmonella enterica [15]) [µg/mL]	MIC (Escherichia coli [16]) [µg/mL]	diameter of the inhibition zone (DIZ) (Pichia kudriavzevii [17]) [mm]	MIC (Pseudomonas aeruginosa [18]) [µg/mL]	diameter of the inhibition zone (DIZ) (Cryptococcus neoformans [19]) [mm]	diameter of the inhibition zone (DIZ) (Streptococcus pyogenes [20]) [mm]	also measured
C=CCCCCCCCCC(=O)O[C@H]1CC[C@]2(C)[C@H]3CC[C@]4(C)[C@@H]([C@H](C)CCCC(C)C)CC[C@H]4[C@@H]3C[C@@H](Br)[C@@]2(Br)C1	256 (≈ 359 µM)	17.1	32 (≈ 44.9 µM)	19.8	16 (≈ 22.4 µM)	16.2	15.5	21.5	256 (≈ 359 µM)	20.1	64 (≈ 89.8 µM)	128 (≈ 180 µM)	64 (≈ 89.8 µM)	12.8	128 (≈ 180 µM)	128 (≈ 180 µM)	13.4	512 (≈ 718 µM)	12.7	20.2	
CC(C)CCC[C@@H](C)[C@H]1CC[C@H]2[C@@H]3C[C@@H](Br)[C@@]4(Br)C[C@@H](OC(=O)CCCCCCCCC(Br)CBr)CC[C@]4(C)[C@H]3CC[C@]12C (stereo not given in full)	512 (≈ 587 µM)	17.1	32 (≈ 36.7 µM)	20.5	4 (≈ 4.58 µM)	21.3	17.8	23.1	64 (≈ 73.3 µM)	22.5	32 (≈ 36.7 µM)	64 (≈ 73.3 µM)	32 (≈ 36.7 µM)	14.4	64 (≈ 73.3 µM)	32 (≈ 36.7 µM)	15.5	64 (≈ 73.3 µM)	13.8	23.3	
CC(C)CCC[C@@H](C)[C@H]1CC[C@H]2[C@@H]3CC=C4C[C@@H](OC(=O)CCCCCCCCC5CO5)CC[C@]4(C)[C@H]3CC[C@]12C (stereo not given in full)	128 (≈ 225 µM)	18.5	32 (≈ 56.2 µM)	19.9	1 (≈ 1.76 µM)	17.2	19.6	21.9	8 (≈ 14.1 µM)	21.9	32 (≈ 56.2 µM)	32 (≈ 56.2 µM)	32 (≈ 56.2 µM)	16.9	64 (≈ 112 µM)	32 (≈ 56.2 µM)	17.8	64 (≈ 112 µM)	15.8	20.5	
CC(C)CCC[C@@H](C)[C@H]1CC[C@H]2[C@@H]3CC=C4C[C@@H](OC(=O)CCCCCCCCC(Br)CBr)CC[C@]4(C)[C@H]3CC[C@]12C (stereo not given in full)	128 (≈ 180 µM)	15.1	32 (≈ 44.9 µM)	16.4	1 (≈ 1.4 µM)	16.1	19.5	20.3	8 (≈ 11.2 µM)	19.5	32 (≈ 44.9 µM)	32 (≈ 44.9 µM)	64 (≈ 89.8 µM)	16.8	128 (≈ 180 µM)	128 (≈ 180 µM)	17.5	128 (≈ 180 µM)	15.9	18.8	
CCCCCCCC/C=C\CCCCCCCC(=O)O[C@H]1CC[C@@]2(C)C(=CC[C@H]3[C@@H]4CC[C@H]([C@H](C)CCCC(C)C)[C@@]4(C)CC[C@@H]32)C1 [CHOLESTERYL OLEATE]	256 (≈ 393 µM)	14.3	64 (≈ 98.3 µM)	16.1	2 (≈ 3.07 µM)	15.1	18.7	18.9	16 (≈ 24.6 µM)	17.8	64 (≈ 98.3 µM)	32 (≈ 49.1 µM)	64 (≈ 98.3 µM)	15.7	128 (≈ 197 µM)	128 (≈ 197 µM)	16.8	128 (≈ 197 µM)	15.1	17.2	
OC(Cn1cncn1)(Cn1cncn1)c1ccc(F)cc1F [FLUCONAZOLE]	64 (≈ 209 µM)				1 (≈ 3.27 µM)				8 (≈ 26.1 µM)			8 (≈ 26.1 µM)									zone of inhibition at 30 µg/mL (Candida parapsilosis [21]): 18 mm; zone of inhibition at 30 µg/mL (Pichia kudriavzevii [22]): 20 mm; zone of inhibition at 30 µg/mL (Cryptococcus neoformans [23]): 19 mm; zone of inhibition at 30 µg/mL (Candida albicans [24]): 20 mm
C=CCCCCCCCCC(=O)O[C@H]1CC[C@@]2(C)C(=CC[C@H]3[C@@H]4CC[C@H]([C@H](C)CCCC(C)C)[C@@]4(C)CC[C@@H]32)C1	256 (≈ 463 µM)	16.2	32 (≈ 57.9 µM)	16.5	2 (≈ 3.62 µM)	16.4	18.3	20.5	32 (≈ 57.9 µM)	19.8	32 (≈ 57.9 µM)	128 (≈ 231 µM)	64 (≈ 116 µM)	15.1	128 (≈ 231 µM)	128 (≈ 231 µM)	16.1	32 (≈ 57.9 µM)	12.1	19.2	
CCCCCCC(O)C/C=C\CCCCCCCC(=O)O[C@H]1CC[C@@]2(C)C(=CC[C@H]3[C@@H]4CC[C@H]([C@H](C)CCCC(C)C)[C@@]4(C)CC[C@@H]32)C1 (stereo not given in full)	64 (≈ 95.9 µM)	16.5	32 (≈ 48 µM)	20.4	1 (≈ 1.5 µM)	21.1	20.3	22.8	8 (≈ 12 µM)	22.1	32 (≈ 48 µM)	8 (≈ 12 µM)	32 (≈ 48 µM)	17.8	32 (≈ 48 µM)	32 (≈ 48 µM)	18.7	128 (≈ 192 µM)	16.9	22.6	
CCCCC/C=C\CCC(O)CCCCCCCC(=O)O[C@H]1CC[C@@]2(C)C(=CC[C@H]3[C@@H]4CC[C@H]([C@H](C)CCCC(C)C)[C@@]4(C)CC[C@@H]32)C1 (stereo not given in full)	64 (≈ 95.9 µM)	8.8	64 (≈ 95.9 µM)	9.6	1 (≈ 1.5 µM)	14.8	22.5	17.3	8 (≈ 12 µM)	17.1	128 (≈ 192 µM)	8 (≈ 12 µM)	64 (≈ 95.9 µM)	19.8	128 (≈ 192 µM)	512 (≈ 767 µM)	20.7	128 (≈ 192 µM)	19.1	16.8	
O=C(N[C@H](CO)[C@H](O)c1ccc([N+](=O)[O-])cc1)C(Cl)Cl [CHLORAMPHENICOL]			32 (≈ 99 µM)								32 (≈ 99 µM)		32 (≈ 99 µM)		32 (≈ 99 µM)	32 (≈ 99 µM)		32 (≈ 99 µM)			zone of inhibition at 30 µg/mL (Streptococcus mutans [25]): 26.8 mm; zone of inhibition at 30 µg/mL (Streptococcus pyogenes [26]): 22.4 mm; zone of inhibition at 30 µg/mL (Staphylococcus aureus [27]): 21 mm; zone of inhibition at 30 µg/mL (Pseudomonas aeruginosa [28]): 17.1 mm; zone of inhibition at 30 µg/mL (Salmonella enterica [29]): 25.2 mm; zone of inhibition at 30 µg/mL (Escherichia coli [30]): 20 mm
